Values quoted from earlier work, collected in patent publication US20210205199A1, “Dermatological Cosmetic Composition Comprising an SDKP Peptide or an Analog Thereof” (RPM Dermatologie, priority 2016, published 2021).

Conditions: result in words; background

For “acetyl-serine-aspartic acid-lysine-proline-OH [Ac-SDKP-OH]”, the “Sensitivity to enzymatic hydrolysis” value is given as “very sensitive to enzymatic hydrolysis” and the Stability to hydrolysis is given as “hydrolyzes very easily”.
